The results in this text go back to paper PMC5797143, “Epigenetic modulation of inflammation and synaptic plasticity promotes resilience against stress in mice” (Nature Communications, 2018).

In assay [1] the test system is Rac1 promoter histone H3 acetylation / H3K27 trimethylation. The assay can be described thus: Quantitative ChIP along the Rac1 promoter in MSN-enriched primary cultures. Format: cell-based, mouse. The text has this: Stress-induced reduction of Rac1 expression is associated with a repressed chromatin state surrounding the promoter region of Rac1 in the NAc[11]. Since Mal-gluc can cross the BBB, we hypothesized that Mal-gluc may promote Rac1 expression, in part, by modulating chromatin acetylation. We first assessed the effect of Mal-gluc on HDACs that play key roles in chromatin deacetylation. […] Using site directed quantitative chromatin immunoprecipitation (qCHIP), we examined the permissive histone H3 acetylation (AcH3) in Mal-gluc treated MSN-enriched primary cultures.
Site-directed qChIP was performed for pan-acH3 and H3K27me3 as described previously with modification. Neurons were washed once with PBS and crosslinked in 1% formaldehyde for 15 min, quenched by glycine at a final concentration of 125 mM. Neurons were then rinsed with cold PBS containing protease inhibitor cocktail (Sigma) and scraped off the plate. Cells were resuspended and sonicated with a Bioruptor (15 cycles, 30 sec on/off), which produces chromatin fragments ~350 bp in length. […] Levels of specific histone modifications along the Rac1 promoter were determined by measuring the amount of acetylated or methylated histone-associated DNA using quantitative real-time PCR as previously described.

For assay [2], the system named is Rac1. Put plainly: In vivo dose finding: Rac1 mRNA in the NAc. The arrangement: species or system mouse. The following applies: 50 ng to 5 mg/kg-BW/day in drinking water, 2 weeks; strongest at 500 ng and 5 µg/kg-BW/day. How it is done:
We then initiated dose response and safety studies in mice to determine testing dosages and safety of DHCA and Mal-gluc. C57BL/6 mice were treated with either DHCA (doses ranging from 50 µg to 50 mg/kg-BW/day) or Mal-gluc (doses ranging from 50 ng to 5 mg/kg-BW/day) for 2 weeks to simulate long-term administration. Mice treated with DHCA were challenged with intraperitoneal (i.p.) injection of 0.4 mg/kg-BW LPS and plasma levels of IL-6 were measured 6 h post injection. […] Following common discovery-stage practices, we measured the plasma levels of alkaline phosphatase (ALP), aspartate aminotransferase (AST), and alanine aminotransferase (ALT) for liver function and blood urea nitrogen (BUN) for renal function.
Male C57BL/6 J mice (8-week-old) were placed on a polyphenol-free AIN-93M diet and treated with various doses of DHCA (vehicle, 50 µg, 500 µg, 5 mg, and 50 mg/kg-BW/day), delivered through their drinking water for two weeks. […]
Total RNA from MSN-enriched cultures or brain NAc was isolated using the RNeasy Mini Kit (Qiagen, Valencia, CA, USA) and reverse transcribed. Gene expression was measured in four replicates by quantitative RT-PCR using Maxima SYBR Green master mix (Fermentas) in ABI Prism 7900HT. […]

As for `COc1cc(-c2[o+]c3cc(O)cc(O)c3cc2O[C@@H]2O[C@H](CO)[C@@H](O)[C@H](O)[C@H]2O)cc(OC)c1O` [Mal-gluc], in assay [1], the “repressive trimethylation of the Rac1 promoter (H3K27)” value is “no effect on the repressive trimethylation”. Also, the “permissive histone H3 acetylation (AcH3) of Rac1” value in assay [1] (compared to vehicle, across the region surveyed) was “significantly increased permissive acetylation”. Further, the “Rac1 mRNA in the NAc” value in assay [2] is “dose-response increase of Rac1 expression”.
